Source: patent publication US9414591B2, “Chitooligosaccharides and methods for use in enhancing corn growth” (NOVOZYMES BIOAG A/S, priority 2011, dated 2016)

What was measured:
Format in all cases: in vivo
Corn seeds [1] = assay: Corn seed germination in petriplates (Example 2); details: 5 days after plating
Procedure: Corn seeds were plated in petriplates containing 5 ml of treatment solution on a filter paper. Corn seeds were placed on moist filter paper for germination. Similarly, wheat seeds (spring wheat) were placed in petriplates. […] Roots were harvested and their length measured by WinRhizo system.

corn seed = assay: Field trials, grain yield when applied to corn seed before planting (Example 5)
[2] = tested on: Hybrid corn seeds (92L90); assay: Greenhouse corn seed treatment, plant dry weight (Example 1); details: seed treatment solution 10^-8 M
Procedure: Two seed treatment experiments using only Pea LCO, Pea CO and the CO mixtures obtained from chitosan by enzymatic process (structurally distinct from the Pea CO, and also referred to in the examples as the “China CO”) were performed in greenhouse. Hybrid corn seeds (92L90, Peterson Farm, USA) were treated with treatment solution (10^-8 M) at the rate of 3 fl oz/100 lbs of seed. Seeds were planted in plastic pots containing 1:1 Sand:Perlite mixture. Seeds were allowed to grow for about 3-4 weeks and then they were harvested and their dry weight measured.

Corn seeds [3] = assay: Greenhouse corn seed application, seedling dry weight (Example 3); details: alone at 10^−8 M; harvested 10 days after planting (FIG. 9)
Procedure: Corn seeds were treated with various combinations of Pea CO (10^-8 M) and Pea LCO (10-8, 10^-9 M). Seeds were planted in greenhouse plastic pots containing 1:1 sand:perlite mixture. Seedlings were harvested 10 days after planting, washed clean and then dried in an oven at 60 C for 48 hr.

corn foliage = assay: Field trials, grain yield when applied to corn foliage (Example 4)
[4] = seed treatment, CO compared to LCO, less

`CC(=O)NC1C(O)OC(CO)C(OC2OC(CO)C(OC3OC(CO)C(OC4OC(CO)C(OC5OC(CO)C(O)C(O)C5N)C(O)C4NC(C)=O)C(O)C3NC(C)=O)C(O)C2NC(C)=O)C1O` (stereo not shown) [CO (CO-V)] was tested, and the “seed germination” value (Corn seeds [1]; 5 ml treatment solution on filter paper, vs control (FIG. 7)) was “increased germination”, the “seedling root length” value (Corn seeds [1]; WinRhizo system, vs control) was “significantly increased seedling root length over control” and the “YIELD, Response Increase (% of Control)” value (corn seed; seed treatment) was 3.6 % of Control. The “yield enhancement when applied to corn seed” value (corn seed; seed treatment) was “provided yield enhancement above the Control”, the “YIELD, Mean (N = 10)” value (corn seed; seed treatment 1×10-8 molar, 1 μg/acre, 3 fluid ounces per 50 pounds of seed, 10 field trials) was 188.0 bu/A and the “CO mean yield less than LCO” value (corn seed; [4]) was 4.6 bu/A. For the same compound, the “less positive yield responses than LCO” value (corn seed; [4]) was 10.0%, the “less yield increase above the Control than LCO” value (corn seed; [4]) was 2.5% and the “Positive Yield Response (%)” value (corn seed; seed treatment, share of the 10 trials with positive yield enhancement) was 80.0%. For the same compound, the “YIELD, Response (bu/A)” value (corn seed; seed treatment, versus Control (water)) was 6.5 bu/A, the “shoot, root and total biomass / plant dry weight compared to LCO” value ([2]; both experiments) was “greater shoot, root and total biomass increase over non-inventive and comparable LCO” and the “dry weight increase over LCO” value ([2]; first trial (FIG. 5), 3 fl oz/100 lbs of seed, harvested after about 3-4 weeks) was 11.84%. For the same compound, the “dry weight-increase over LCO” value ([2]; second trial (FIG. 6), 3 fl oz/100 lbs of seed, harvested after about 3-4 weeks) was 12.63%, the “corn seedling dry weight” value (Corn seeds [3]) was “increased corn seedling dry weight” and the “yield enhancement as a foliar treatment” value (corn foliage) was “performed at least twice better than the LCO”. For the same compound, the “CO mean yield better than foliar LCO response” value (corn foliage; CO compared to LCO) was 5.0 bu/A, the “YIELD, Response Increase (% of Control)” value (corn foliage; foliar) was 4.8 % of Control and the “YIELD, Mean (N = 16)” value (corn foliage; foliar, 4 ounces per acre with glyphosate herbicide, 16 field trials) was 201.8 bu/A. For the same compound, the “higher yield increase than LCO” value (corn foliage; foliar, CO compared to LCO) was 2.6%, the “trials with a positive response, better than LCO” value (corn foliage; foliar, CO compared to LCO) was 18.8% and the “Positive Yield Response (%)” value (corn foliage; foliar, share of the 16 trials with positive yield enhancement) was 93.8%. The “YIELD, Response (bu/A)” value (corn foliage; foliar, versus Control (water)) was 9.2 bu/A.
